Test results reported in ChEMBL document CHEMBL1128770, “Amino azoles and azolo-azines as potential hepatoprotectants: Part III” (1995).

Legend:
Assay type in all cases: functional
[1] = tested on: Rattus norvegicus; assay: Hepatoprotective activity against thioacetamide (200 mg/kg, sc) induced toxicity in rat at 6 mg/kg dose (po x 7 days), expressed as %protection afforded in various levels of bilirubin
[2] = tested on: Rattus norvegicus; assay: Hepatoprotective activity against thioacetamide(200 mg/kg, sc) induced toxicity in rat at 6 mg/kg dose(po x 7 days), expressed as %protection afforded in various levels of glutamate pyruvate transaminase (GPT)
[3] = tested on: Rattus norvegicus; assay: Hepatoprotective activity against thioacetamide(200 mg/kg, sc) induced toxicity in rat at 6 mg/kg dose(po x 7 days), expressed as %protection afforded in various levels of glutamate oxaloacetate transaminase (GOT)
[4] = tested on: Rattus norvegicus; assay: Hepatoprotective activity against thioacetamide (200 mg/kg, sc) induced toxicity in rat at 6 mg/kg dose (po x 7 days), expressed as %protection afforded in various levels of alkaline phosphatase (ALP)

Compound	Bilurubin Level [1] [mg %]	GPT Level [2] [U l-1]	GOT Level [3] [U l-1]	ALP Level [4] [U l-1]
CC(=N)S [THIOACETAMIDE]	0.829	171.5	128	218.9
Nc1nc(N)nc(Cc2cc(-c3ccc(F)cc3)[nH]n2)n1	0.807	129	121.6	203.2
Nc1noc(N)c1Cc1ccc(Cl)cc1	0.735	112.5	106	201
Cc1ccc(-c2cc(Cc3nnc(N)s3)n(-c3ccccc3)n2)cc1	0.575	87.5	65.2	196
Nc1n[nH]c(N)c1Cc1ccc2c(c1)OCO2	0.758	99.2	75.6	196.9
CN(C)c1ccc(Cc2c(N)n[nH]c2N)cc1	0.568	93.8	67.1	187.1
COc1ccc(Cc2c(N)noc2N)cc1	0.745	87.4	99.9	215.9
Nc1n[nH]c(N)c1Cc1ccc(Cl)cc1	0.757	136.2	97.5	205.3
COc1ccc(Cc2c(N)n[nH]c2N)cc1	0.619	85.5	70.4	187
CC(=O)Nc1[nH]nc(N)c1Cc1ccc(Cl)cc1	0.693	146	96.7	204
Nc1nc(N)nc(Cc2cc(-c3ccc(Cl)cc3)[nH]n2)n1	0.748	148.5	119	190.5
SILYMARIN	0.617	110	84.5	199
Nc1noc(N)c1Cc1ccc2c(c1)OCO2	0.69	109.3	101.5	205.8
CN(C)c1ccc(Cc2c(N)noc2N)cc1	0.786	146.2	114	206.6
